Reference: ChEMBL document CHEMBL1201862, “PubChem BioAssay data set” (2004)
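Method: 48-hour compound exposure of cells in 96-well plates, five concentrations, linear interpolation of endpoints. GI50 = concentration required for 50% inhibition of growth.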 Calls of active or inactive are those of the source. Cut-off read from the data, not from the text of the source: active = GI50 up to about 1.1 µM and inactive = higher.

Experiments:
Test in all cases: inhibition of tumour cell growth, NCI panel, 48 h
[1] = tested on: ACHN
[2] = tested on: DU-145
[3] = tested on: HCC 2998
[4] = tested on: Hs-578T
[5] = tested on: M14
[6] = tested on: MCF7
[7] = tested on: MDA-MB-231
[8] = tested on: MDA-N
[9] = tested on: MOLT-4
[10] = tested on: NCI-H460
[11] = tested on: NCI-H522
[12] = tested on: OVCAR-4
[13] = tested on: OVCAR-5
[14] = tested on: RXF 393
[15] = tested on: SF-268
[16] = tested on: SK-MEL-2
[17] = tested on: SK-MEL-5
[18] = tested on: SN12C
[19] = tested on: SR
[20] = tested on: U-251

For `COc1cc(/C=C2/C[C@H]3[C@@H]4CC=C5C[C@@H](OC(C)=O)CC[C@]5(C)[C@H]4CC[C@]3(C)NC2=O)cc(OC)c1OC`, the GI50 [1] was 19.1 µM (inactive), the GI50 [2] was 20.8 µM (inactive) and the GI50 [3] was 43.4 µM (inactive). For the same compound, the GI50 [4] was 24.2 µM (inactive), the GI50 [5] was 36.5 µM (inactive) and the GI50 [6] was 25.4 µM (inactive). For the same compound, the GI50 [7] was 22 µM (inactive), the GI50 [8] was 42.7 µM (inactive) and the GI50 [9] was 16.9 µM (inactive). For the same compound, the GI50 [10] was 32.7 µM (inactive), the GI50 [11] was 24.6 µM (inactive) and the GI50 [12] was 17.4 µM (inactive). For the same compound, the GI50 [13] was 27 µM (inactive), the GI50 [14] was 17.3 µM (inactive) and the GI50 [15] was 24 µM (inactive). The GI50 [16] was 18.7 µM (inactive), the GI50 [17] was 22.9 µM (inactive) and the GI50 [18] was 29.6 µM (inactive). For the same compound, the GI50 [19] was 47.6 µM (inactive) and the GI50 [20] was 19.5 µM (inactive).
With `CC(=O)OCc1ccc2oc(=O)c(C(=O)Oc3cccc(Cl)c3)cc2c1` the GI50 [1] was 38.2 µM (inactive), the GI50 [2] was > 100 µM (inactive) and the GI50 [3] was 19.4 µM (inactive). For the same compound, the GI50 [4] was > 100 µM (inactive), the GI50 [5] was 34.6 µM (inactive) and the GI50 [6] was 26.2 µM (inactive). For the same compound, the GI50 [7] was 32.4 µM (inactive), the GI50 [8] was > 100 µM (inactive) and the GI50 [9] was 90.2 µM (inactive). For the same compound, the GI50 [10] was 37.9 µM (inactive), the GI50 [11] was > 100 µM (inactive) and the GI50 [12] was > 100 µM (inactive). For the same compound, the GI50 [13] was > 100 µM (inactive), the GI50 [14] was 33.7 µM (inactive) and the GI50 [15] was > 100 µM (inactive). The GI50 [16] was 82.4 µM (inactive), the GI50 [17] was > 100 µM (inactive) and the GI50 [18] was 54.5 µM (inactive). For the same compound, the GI50 [19] was 44.8 µM (inactive) and the GI50 [20] was > 100 µM (inactive).
`Clc1ncnc2c1nc(C#Cc1ccccc1)n2Cc1ccccc1` was tested, and the GI50 [1] was 65.2 µM (inactive), the GI50 [2] was 7.52 µM (inactive) and the GI50 [3] was 11.4 µM (inactive). The GI50 [4] was 53 µM (inactive), the GI50 [5] was 19.1 µM (inactive) and the GI50 [6] was 23 µM (inactive). The GI50 [7] was 26.7 µM (inactive), the GI50 [8] was 5.61 µM (inactive) and the GI50 [9] was 3.34 µM (inactive). The GI50 [10] was 82.2 µM (inactive), the GI50 [11] was 16.4 µM (inactive) and the GI50 [12] was 16.7 µM (inactive). The GI50 [13] was > 100 µM (inactive), the GI50 [14] was 16.3 µM (inactive) and the GI50 [15] was 40.9 µM (inactive). The GI50 [16] was 30 µM (inactive), the GI50 [17] was 32 µM (inactive) and the GI50 [18] was 18.8 µM (inactive). The GI50 [19] was 3.08 µM (inactive) and the GI50 [20] was 17.6 µM (inactive).
With `O=[N+]([O-])/C(C(Cl)=C(Cl)Cl)=C1/OCCS1` the GI50 [1] was 20.4 µM (inactive), the GI50 [2] was 42.2 µM (inactive) and the GI50 [3] was 37.9 µM (inactive). For the same compound, the GI50 [4] was 39.7 µM (inactive), the GI50 [5] was 46.7 µM (inactive) and the GI50 [6] was 61.4 µM (inactive). For the same compound, the GI50 [7] was 17.5 µM (inactive), the GI50 [8] was 41.6 µM (inactive) and the GI50 [9] was 17.9 µM (inactive). The GI50 [10] was 27 µM (inactive), the GI50 [11] was 32.4 µM (inactive) and the GI50 [12] was 30.4 µM (inactive). For the same compound, the GI50 [13] was 32.4 µM (inactive), the GI50 [14] was 19.3 µM (inactive) and the GI50 [15] was 25.5 µM (inactive). For the same compound, the GI50 [16] was 27.7 µM (inactive), the GI50 [17] was 19.1 µM (inactive) and the GI50 [18] was 23 µM (inactive). The GI50 [19] was 30.1 µM (inactive) and the GI50 [20] was 36 µM (inactive).
With `Cc1cc(C)n(CC(Cn2nc(C)cc2C)=C(/C(Cl)=C(/Cl)Nc2ccc([N+](=O)[O-])cc2)[N+](=O)[O-])n1` the GI50 [1] was 3.25 µM (inactive), the GI50 [2] was 4.03 µM (inactive) and the GI50 [3] was 3.52 µM (inactive). The GI50 [4] was 5.31 µM (inactive), the GI50 [5] was 4.37 µM (inactive) and the GI50 [6] was 3.71 µM (inactive). The GI50 [7] was 6.05 µM (inactive), the GI50 [8] was 3.74 µM (inactive) and the GI50 [9] was 1.79 µM (inactive). The GI50 [10] was 3.33 µM (inactive), the GI50 [11] was 2.09 µM (inactive) and the GI50 [12] was 1.02 µM (active). The GI50 [13] was 7.78 µM (inactive), the GI50 [14] was 3.59 µM (inactive) and the GI50 [15] was 5.01 µM (inactive). The GI50 [16] was 3.05 µM (inactive), the GI50 [17] was 2.29 µM (inactive) and the GI50 [18] was 3.82 µM (inactive). The GI50 [19] was 2.48 µM (inactive) and the GI50 [20] was 3.53 µM (inactive).
For `O=C1/C(=C(/Br)I)c2ccccc2-c2ccccc21`, the GI50 [1] was 7.26 µM (inactive), the GI50 [2] was 16.3 µM (inactive) and the GI50 [3] was 3.76 µM (inactive). The GI50 [4] was 28.6 µM (inactive), the GI50 [5] was 9.95 µM (inactive) and the GI50 [6] was 8.85 µM (inactive). The GI50 [7] was 6.14 µM (inactive), the GI50 [8] was 2.95 µM (inactive) and the GI50 [9] was 2.21 µM (inactive). The GI50 [10] was 17.8 µM (inactive), the GI50 [11] was 2.09 µM (inactive) and the GI50 [12] was 14.7 µM (inactive). The GI50 [13] was 11.9 µM (inactive), the GI50 [14] was 3.21 µM (inactive) and the GI50 [15] was 14.1 µM (inactive). For the same compound, the GI50 [16] was 8.73 µM (inactive), the GI50 [17] was 16 µM (inactive) and the GI50 [18] was 16.2 µM (inactive). For the same compound, the GI50 [19] was 2.92 µM (inactive) and the GI50 [20] was 12.6 µM (inactive).
